Laboratory results from patent publication US20260325533A1, “CDK INHIBITOR COMPOUNDS” (ALEKSIA THERAPEUTICS, INC., priority 2023, published 2026).
Read-outs that look alike come from different tables or passages of the source.

What was measured:
Format in all cases: biochemical
CDK2/CCNE1 = CDK2/CCNE1 (Homo sapiens, UniProt P24941); experiment: CDK2 homogeneous time-resolved fluorescence (HTRF) kinase assay; conditions: CDK2/CCNE
Procedure, shortened: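 An HTRF format measures CDK2/CCNE1 (3 nM) phosphorylating a 4E-BP1 Thr37/46 peptide at high (1 mM) ATP. Reactions run one hour at 23 °C, then EDTA-quenched and probed with Eu-labelled phospho-specific antibody.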

CDK1/CCNB1 = CDK1/CCNB1 (Homo sapiens, UniProt P06493); experiment: CDK1 homogeneous time-resolved fluorescence (HTRF) kinase assay; conditions: CDK1/CCNB
CDK1/CCNB1, sequence (P06493 whole entry): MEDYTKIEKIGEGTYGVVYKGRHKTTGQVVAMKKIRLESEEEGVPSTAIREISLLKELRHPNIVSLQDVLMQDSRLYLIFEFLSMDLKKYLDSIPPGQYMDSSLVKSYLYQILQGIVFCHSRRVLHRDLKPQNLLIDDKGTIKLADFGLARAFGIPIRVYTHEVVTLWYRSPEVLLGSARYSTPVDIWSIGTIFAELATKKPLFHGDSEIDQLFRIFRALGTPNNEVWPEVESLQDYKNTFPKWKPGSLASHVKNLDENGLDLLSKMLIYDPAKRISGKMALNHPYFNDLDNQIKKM
CDK1/CCNB1, sequence (P14635 whole entry partner): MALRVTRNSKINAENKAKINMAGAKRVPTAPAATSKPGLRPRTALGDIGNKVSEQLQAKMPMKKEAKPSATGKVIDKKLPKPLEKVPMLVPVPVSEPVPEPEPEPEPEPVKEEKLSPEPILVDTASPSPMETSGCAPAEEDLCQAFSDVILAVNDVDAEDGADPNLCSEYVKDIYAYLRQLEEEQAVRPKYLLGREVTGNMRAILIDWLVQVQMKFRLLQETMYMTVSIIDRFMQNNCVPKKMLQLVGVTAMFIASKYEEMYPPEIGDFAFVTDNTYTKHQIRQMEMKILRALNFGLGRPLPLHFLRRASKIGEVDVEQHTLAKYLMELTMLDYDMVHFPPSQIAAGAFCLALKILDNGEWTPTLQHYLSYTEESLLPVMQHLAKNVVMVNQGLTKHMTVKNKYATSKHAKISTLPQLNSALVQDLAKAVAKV
Procedure, shortened: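 CDK1/CCNB1 0.5 nM + cpd, 20 min 23 °C; add 1 mM ATP, 50 nM ULight-4E-BP1 peptide, 60 min 23 °C; stop 10 mM EDTA; 2 nM Eu-Ab, 60 min; HTRF 665 nm. 11-pt half-log, top 10 μM typical; IC50.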

CDK4/CCND3 = CDK4/CCND3 (Homo sapiens, UniProt P11802); experiment: CDK4 homogeneous time-resolved fluorescence (HTRF) kinase assay; conditions: CDK4/CCND
CDK4/CCND3, sequence (P11802 whole entry): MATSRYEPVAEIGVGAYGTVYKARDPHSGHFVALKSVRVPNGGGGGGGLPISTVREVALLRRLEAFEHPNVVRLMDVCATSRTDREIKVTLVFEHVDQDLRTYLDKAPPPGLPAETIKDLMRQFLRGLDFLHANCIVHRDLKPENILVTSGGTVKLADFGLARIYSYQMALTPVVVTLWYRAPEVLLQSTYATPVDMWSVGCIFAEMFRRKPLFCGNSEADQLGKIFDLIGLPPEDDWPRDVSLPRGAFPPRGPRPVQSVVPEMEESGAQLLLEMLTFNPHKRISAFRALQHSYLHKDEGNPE
CDK4/CCND3, sequence (P30281 whole entry partner): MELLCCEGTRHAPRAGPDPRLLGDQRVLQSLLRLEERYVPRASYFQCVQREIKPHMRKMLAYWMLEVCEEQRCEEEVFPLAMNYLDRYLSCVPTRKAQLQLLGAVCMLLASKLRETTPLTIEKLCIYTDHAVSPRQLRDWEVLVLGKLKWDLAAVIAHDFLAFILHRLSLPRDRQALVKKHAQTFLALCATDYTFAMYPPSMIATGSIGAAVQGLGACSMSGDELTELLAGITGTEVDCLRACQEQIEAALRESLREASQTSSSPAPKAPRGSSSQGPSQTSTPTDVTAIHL
Procedure, shortened: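 IC50 values were derived from 11-point half-log dilutions, usually starting at 10 μM. Compound was first held for 20 min at 23 °C with 1.5 nM CDK4/CCND3. 1 mM ATP and 50 nM ULight-eIF4E-BP1 (Thr37/46) substrate were then added for 60 min, and the TR-FRET 665 nm signal was measured after EDTA stop and Eu-anti-phospho-4E-BP1 detection.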

CDK6/CCND1 = CDK6/CCND1 (Homo sapiens, UniProt Q00534); experiment: CDK6 homogeneous time-resolved fluorescence (HTRF) kinase assay; conditions: CDK6/CCND, 1 mM ATP
CDK6/CCND1, sequence (Q00534 whole entry): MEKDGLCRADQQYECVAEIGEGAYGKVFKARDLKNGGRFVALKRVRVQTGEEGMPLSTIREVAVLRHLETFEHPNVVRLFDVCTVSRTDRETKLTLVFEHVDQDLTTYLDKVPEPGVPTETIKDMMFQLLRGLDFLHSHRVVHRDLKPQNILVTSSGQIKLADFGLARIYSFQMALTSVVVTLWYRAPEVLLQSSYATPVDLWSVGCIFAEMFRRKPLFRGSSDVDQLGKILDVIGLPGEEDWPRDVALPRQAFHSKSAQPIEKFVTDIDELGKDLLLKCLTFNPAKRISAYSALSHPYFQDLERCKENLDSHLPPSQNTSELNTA
CDK6/CCND1, sequence (P24385 whole entry partner): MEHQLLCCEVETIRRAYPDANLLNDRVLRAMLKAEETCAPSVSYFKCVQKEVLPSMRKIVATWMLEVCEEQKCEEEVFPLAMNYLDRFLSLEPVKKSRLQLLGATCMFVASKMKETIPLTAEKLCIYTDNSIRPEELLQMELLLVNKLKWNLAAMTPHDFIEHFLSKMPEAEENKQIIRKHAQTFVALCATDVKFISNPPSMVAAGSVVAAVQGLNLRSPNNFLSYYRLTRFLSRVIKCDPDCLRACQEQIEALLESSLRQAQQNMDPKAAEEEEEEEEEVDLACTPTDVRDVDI
Procedure, shortened: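 Recombinant CDK6/CCND1 (1 nM final) was preincubated with compound for 20 min at 23 °C in HEPES buffer with MgCl2, EGTA, DTT and Tween 20. Kinase reaction then ran 60 min at 23 °C with 1 mM ATP and 50 nM ULight-4E-BP1 (Thr37/46) peptide, and was stopped with EDTA.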

[1] = 25-250 nM, read-out: CDK2/CCNE IC50, 25-250 nM
[2] = >250 nM, read-out: CDK1/CCNB IC50 >250 nM
[3] = >250 nM, read-out: CDK4/CCND IC50, >250 nM
[4] = >250 nM, read-out: CDK6/CCND IC50, >250 nM
[5] = <25 nM, read-out: CDK2/CCNE IC50, <25 nM
[6] = 25-250 nM, read-out: CDK1/CCNB IC50, 25-250 nM
[7] = 25-250 nM, read-out: CDK6/CCND IC50, 25-250 nM

`COc1cccc(NS(=O)(=O)c2ccc(Nc3cc4c(-c5ccc6c(cnn6CC(O)(C(F)(F)F)C(F)(F)F)c5C)nccc4cn3)cc2)c1` [Ex 717, N-(3-methoxyphenyl)-4-((5-(4-methyl-1-(3,3,3-trifluoro-2-hydroxy-2-(trifluoromethyl)propyl)-1H-indazol-5-yl)-2,6-naphthyridin-3-yl)amino)benzenesulfonamide] gave an IC50 (CDK2/CCNE1; [1]) of 25 to 250 nM, an IC50 (CDK1/CCNB1; [2]) greater than 250 nM and an IC50 (CDK4/CCND3; [3]) greater than 250 nM. It also gave an IC50 (CDK6/CCND1; [4]) greater than 250 nM.

With `COc1ccc(NS(=O)(=O)c2ccc(Nc3cc4c(-c5ccc6c(cnn6CC(O)(C(F)(F)F)C(F)(F)F)c5C)nccc4cn3)cc2)cc1` [Ex 718, N-(4-methoxyphenyl)-4-((5-(4-methyl-1-(3,3,3-trifluoro-2-hydroxy-2-(trifluoromethyl)propyl)-1H-indazol-5-yl)-2,6-naphthyridin-3-yl)amino)benzenesulfonamide] the IC50 (CDK2/CCNE1; [1]) was 25 to 250 nM, the IC50 (CDK1/CCNB1; [2]) was greater than 250 nM and the IC50 (CDK4/CCND3; [3]) was greater than 250 nM. The IC50 (CDK6/CCND1; [4]) was greater than 250 nM.

With `COc1ccc(NS(=O)(=O)c2ccc(Nc3cc4c(-c5ccc6c(cnn6CC(O)(C(F)(F)F)C(F)(F)F)c5C)nccc4cn3)cc2)nc1` [Ex 719, N-(5-methoxypyridin-2-yl)-4-((5-(4-methyl-1-(3,3,3-trifluoro-2-hydroxy-2-(trifluoromethyl)propyl)-1H-indazol-5-yl)-2,6-naphthyridin-3-yl)amino)benzenesulfonamide] the IC50 (CDK2/CCNE1; [1]) was 25 to 250 nM, the IC50 (CDK1/CCNB1; [2]) was greater than 250 nM and the IC50 (CDK4/CCND3; [3]) was greater than 250 nM. For the same molecule, the IC50 (CDK6/CCND1; [4]) was greater than 250 nM.

Work on `Cc1c(-c2nccc3cnc(Nc4ccc(S(=O)(=O)Nc5cccc(C(F)(F)F)n5)cc4)cc23)ccc2c1cnn2CC(O)(C(F)(F)F)C(F)(F)F` [Ex 720, 4-((5-(4-methyl-1-(3,3,3-trifluoro-2-hydroxy-2-(trifluoromethyl)propyl)-1H-indazol-5-yl)-2,6-naphthyridin-3-yl)amino)-N-(6-(trifluoromethyl)pyridin-2-yl)benzenesulfonamide] yielded an IC50 (CDK2/CCNE1; [1]) of 25 to 250 nM, an IC50 (CDK1/CCNB1; [2]) greater than 250 nM and an IC50 (CDK4/CCND3; [3]) greater than 250 nM. For the same molecule, the IC50 (CDK6/CCND1; [4]) was greater than 250 nM.

In the case of `CC[C@H](C)NS(=O)(=O)c1ccc(Nc2cc3c(-c4ccc5c(cnn5CC(C)(C)O)c4C)nccc3cn2)cc1` [Ex 722, (S)-N-(sec-butyl)-4-((5-(1-(2-hydroxy-2-methylpropyl)-4-methyl-1H-indazol-5-yl)-2,6-naphthyridin-3-yl)amino)benzenesulfonamide], the IC50 (CDK2/CCNE1; [5]) is reported as less than 25 nM, the IC50 (CDK1/CCNB1; [2]) is reported as greater than 250 nM and the IC50 (CDK4/CCND3; [3]) is reported as greater than 250 nM. The IC50 (CDK6/CCND1; [4]) was greater than 250 nM.

`Cc1c(-c2nccc3cnc(Nc4ccc(S(N)(=O)=O)cc4)cc23)ccc2c1cnn2CC(O)(C(F)(F)F)C(F)(F)F` [Ex 726, 4-((5-(4-methyl-1-(3,3,3-trifluoro-2-hydroxy-2-(trifluoromethyl)propyl)-1H-indazol-5-yl)-2,6-naphthyridin-3-yl)amino)benzenesulfonamide] gave an IC50 (CDK2/CCNE1; [5]) of less than 25 nM, an IC50 (CDK1/CCNB1; [6]) of 25 to 250 nM and an IC50 (CDK4/CCND3; [3]) greater than 250 nM. For the same molecule, the IC50 (CDK6/CCND1; [7]) was 25 to 250 nM.

Molecule `Cc1c(-c2nccc3cnc(Nc4ccc(S(=O)(=O)Nc5ncccn5)cc4)cc23)ccc2c1cnn2CC(O)(C(F)(F)F)C(F)(F)F` [Ex 727, 4-((5-(4-methyl-1-(3,3,3-trifluoro-2-hydroxy-2-(trifluoromethyl)propyl)-1H-indazol-5-yl)-2,6-naphthyridin-3-yl)amino)-N-(pyrimidin-2-yl)benzenesulfonamide] has an IC50 (CDK2/CCNE1; [5]) of less than 25 nM, an IC50 (CDK1/CCNB1; [2]) greater than 250 nM and an IC50 (CDK4/CCND3; [3]) greater than 250 nM. The IC50 (CDK6/CCND1; [4]) was greater than 250 nM.

`Cc1c(-c2nccc3cnc(Nc4ccc(S(=O)(=O)Nc5ccccc5)cc4)cc23)ccc2c1cnn2CC(O)(C(F)(F)F)C(F)(F)F` [Ex 728, 4-((5-(4-methyl-1-(3,3,3-trifluoro-2-hydroxy-2-(trifluoromethyl)propyl)-1H-indazol-5-yl)-2,6-naphthyridin-3-yl)amino)-N-phenylbenzenesulfonamide] gave an IC50 (CDK2/CCNE1; [1]) of 25 to 250 nM, an IC50 (CDK1/CCNB1; [2]) greater than 250 nM and an IC50 (CDK4/CCND3; [3]) greater than 250 nM. For the same molecule, the IC50 (CDK6/CCND1; [4]) was greater than 250 nM.

For `Cc1c(-c2nccc3cnc(Nc4ccc(S(=O)(=O)NCc5ccccc5)cc4)cc23)ccc2c1cnn2CC(O)(C(F)(F)F)C(F)(F)F` [Ex 729, N-benzyl-4-((5-(4-methyl-1-(3,3,3-trifluoro-2-hydroxy-2-(trifluoromethyl)propyl)-1H-indazol-5-yl)-2,6-naphthyridin-3-yl)amino)benzenesulfonamide], the IC50 (CDK2/CCNE1; [1]) was 25 to 250 nM, the IC50 (CDK1/CCNB1; [2]) was greater than 250 nM and the IC50 (CDK4/CCND3; [3]) was greater than 250 nM. It also gave an IC50 (CDK6/CCND1; [4]) greater than 250 nM.

For `Cc1c(-c2nccc3cnc(Nc4ccc(S(=O)(=O)NCc5ccccc5)cc4)cc23)ccc2c1cnn2CC(C)(C)O` [Ex 730, N-benzyl-4-((5-(1-(2-hydroxy-2-methylpropyl)-4-methyl-1H-indazol-5-yl)-2,6-naphthyridin-3-yl)amino)benzenesulfonamide], the IC50 (CDK2/CCNE1; [5]) was less than 25 nM, the IC50 (CDK1/CCNB1; [2]) was greater than 250 nM and the IC50 (CDK4/CCND3; [3]) was greater than 250 nM. It also gave an IC50 (CDK6/CCND1; [4]) greater than 250 nM.

Work on `CCN(c1ncccn1)S(=O)(=O)c1ccc(Nc2cc3c(-c4ccc5c(cnn5CC(O)(C(F)(F)F)C(F)(F)F)c4C)nccc3cn2)cc1` [Ex 731, N-ethyl-4-((5-(4-methyl-1-(3,3,3-trifluoro-2-hydroxy-2-(trifluoromethyl)propyl)-1H-indazol-5-yl)-2,6-naphthyridin-3-yl)amino)-N-(pyrimidin-2-yl)benzenesulfonamide] yielded an IC50 (CDK2/CCNE1; [1]) of 25 to 250 nM, an IC50 (CDK1/CCNB1; [2]) greater than 250 nM and an IC50 (CDK4/CCND3; [3]) greater than 250 nM. The IC50 (CDK6/CCND1; [4]) was greater than 250 nM.

For `Cc1c(-c2nccc3cnc(Nc4ccc(S(=O)(=O)N(C)c5ncccn5)cc4)cc23)ccc2c1cnn2CC(C)(C)O` [Ex 734, 4-((5-(1-(2-hydroxy-2-methylpropyl)-4-methyl-1H-indazol-5-yl)-2,6-naphthyridin-3-yl)amino)-N-methyl-N-(pyrimidin-2-yl)benzenesulfonamide], the IC50 (CDK2/CCNE1; [5]) was less than 25 nM, the IC50 (CDK1/CCNB1; [6]) was 25 to 250 nM and the IC50 (CDK4/CCND3; 25-250 nM, read-out: CDK4/CCND IC50, 25-250 nM) was 25 to 250 nM. For the same molecule, the IC50 (CDK6/CCND1; [7]) was 25 to 250 nM.

Molecule `COc1cccc(NS(=O)(=O)c2ccc(Nc3cc4c(-c5ccc6c(cnn6CC(O)(C(F)(F)F)C(F)(F)F)c5C)nccc4cn3)cc2)n1` [Ex 735, N-(6-methoxypyridin-2-yl)-4-((5-(4-methyl-1-(3,3,3-trifluoro-2-hydroxy-2-(trifluoromethyl)propyl)-1H-indazol-5-yl)-2,6-naphthyridin-3-yl)amino)benzenesulfonamide] has an IC50 (CDK2/CCNE1; [1]) of 25 to 250 nM, an IC50 (CDK1/CCNB1; [2]) greater than 250 nM and an IC50 (CDK4/CCND3; [3]) greater than 250 nM. It also gave an IC50 (CDK6/CCND1; [4]) greater than 250 nM.

`Cc1cc(C)nc(NS(=O)(=O)c2ccc(Nc3cc4c(-c5ccc6c(cnn6CC(O)(C(F)(F)F)C(F)(F)F)c5C)nccc4cn3)cc2)n1` [Ex 736, N-(4,6-dimethylpyrimidin-2-yl)-4-((5-(4-methyl-1-(3,3,3-trifluoro-2-hydroxy-2-(trifluoromethyl)propyl)-1H-indazol-5-yl)-2,6-naphthyridin-3-yl)amino)benzenesulfonamide] gave an IC50 (CDK2/CCNE1; [5]) of less than 25 nM, an IC50 (CDK1/CCNB1; [2]) greater than 250 nM and an IC50 (CDK4/CCND3; [3]) greater than 250 nM. For the same molecule, the IC50 (CDK6/CCND1; [4]) was greater than 250 nM.

In the case of `COc1ccnc(NS(=O)(=O)c2ccc(Nc3cc4c(-c5ccc6c(cnn6CC(O)(C(F)(F)F)C(F)(F)F)c5C)nccc4cn3)cc2)n1` [Ex 737, N-(4-methoxypyrimidin-2-yl)-4-((5-(4-methyl-1-(3,3,3-trifluoro-2-hydroxy-2-(trifluoromethyl)propyl)-1H-indazol-5-yl)-2,6-naphthyridin-3-yl)amino)benzenesulfonamide], the IC50 (CDK2/CCNE1; [5]) is reported as less than 25 nM, the IC50 (CDK1/CCNB1; [2]) is reported as greater than 250 nM and the IC50 (CDK4/CCND3; [3]) is reported as greater than 250 nM. For the same molecule, the IC50 (CDK6/CCND1; [4]) was greater than 250 nM.

`Cc1c(-c2nccc3cnc(Nc4ccc(S(=O)(=O)Nc5cccc(N6CCOCC6)c5)cc4)cc23)ccc2c1cnn2CC(O)(C(F)(F)F)C(F)(F)F` [Ex 738, 4-((5-(4-methyl-1-(3,3,3-trifluoro-2-hydroxy-2-(trifluoromethyl)propyl)-1H-indazol-5-yl)-2,6-naphthyridin-3-yl)amino)-N-(3-morpholinophenyl)benzenesulfonamide] was tested, and the IC50 (CDK2/CCNE1; [1]) was 25 to 250 nM, the IC50 (CDK1/CCNB1; [2]) was greater than 250 nM and the IC50 (CDK4/CCND3; [3]) was greater than 250 nM. For the same molecule, the IC50 (CDK6/CCND1; [4]) was greater than 250 nM.

With `COc1cc(NS(=O)(=O)c2ccc(Nc3cc4c(-c5ccc6c(cnn6CC(O)(C(F)(F)F)C(F)(F)F)c5C)nccc4cn3)cc2)cc(OC)c1` [Ex 739, N-(3,5-dimethoxyphenyl)-4-((5-(4-methyl-1-(3,3,3-trifluoro-2-hydroxy-2-(trifluoromethyl)propyl)-1H-indazol-5-yl)-2,6-naphthyridin-3-yl)amino)benzenesulfonamide] the IC50 (CDK2/CCNE1; [1]) was 25 to 250 nM, the IC50 (CDK1/CCNB1; [2]) was greater than 250 nM and the IC50 (CDK4/CCND3; [3]) was greater than 250 nM. It also gave an IC50 (CDK6/CCND1; [4]) greater than 250 nM.
